# Active and inactive are the calls of the source.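 The calls were made as follows: active = compounds whose IC50 is at or below a set limit; inactive = the rest.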
# Target: Bcl-2-like protein 10 (Homo sapiens) (UniProt Q9HD36)
# Experiment: small molecules blocking Bcl-B/Bim BH3 binding – biochemical, fluorescence polarization, set 2, SAR follow-up (AID 720677)
# Conditions: GST-Bcl-B / FITC-Bim peptide fluorescence polarization displacement
# Sequence of Bcl-2-like protein 10 (Homo sapiens) (Q9HD36 whole entry, looked up): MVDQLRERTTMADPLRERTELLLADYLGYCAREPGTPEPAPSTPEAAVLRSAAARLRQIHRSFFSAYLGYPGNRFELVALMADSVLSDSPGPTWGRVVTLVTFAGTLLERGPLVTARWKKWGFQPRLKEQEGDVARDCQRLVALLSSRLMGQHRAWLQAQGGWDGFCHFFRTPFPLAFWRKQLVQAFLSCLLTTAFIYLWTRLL
row,Structure (SMILES),IC50
1,COc1cccc(Cn2c(=O)c3c(n4nnnc24)-c2ccccc2CC32CCCC2)c1,985 nM
2,COc1ccc(Cn2c(=O)c3c(n4nnnc24)-c2ccccc2CC32CCCC2)cc1,795 nM
3,O=c1c2c(n3nnnc3n1Cc1ccccc1Cl)-c1ccccc1CC21CCCC1,> 20000 nM (inactive)
4,COc1ccc(Cn2c(=O)c3c(n4nnnc24)-c2cc(F)ccc2CC32CCCC2)cc1,1010 nM
5,O=c1c2c(n3cnnc3n1Cc1ccc(F)cc1)-c1cc(F)ccc1CC21CCCC1,> 20000 nM (inactive)
6,COc1ccc(Cn2c(=O)c3c(n4cnnc24)-c2cc(F)ccc2CC32CCCC2)cc1,3430 nM
7,COc1ccccc1Cn1c(=O)c2c(n3nnnc13)-c1ccccc1CC21CCCC1,> 20000 nM (inactive)

# From PubChem BioAssay AID720677 (Sanford-Burnham Center for Chemical Genomics, 2013)
